Data published in EP0431323A1, “Antitumor antibiotic BU-3983T” (priority 1989, dated 1991).
Where two headings read alike, the source gives them in different places.

Assays:
B16 melanoma = test: In vivo antitumor activity in tumor-bearing mice, B16 melanoma (ip); conditions: for Body weight change on day 5 / MST (Median survival time) / T/C: B16 melanoma ip, BDF₁ mice; for T/C: significant if T/C ≧ 125%
Protocol: (§1) In vivo antitumor activity of BU-3983T was examined using tumor-bearing mice. Male BDF₁ mice were intraperitoneally inoculated with 0.5 ml of 10% melanotic melanoma B16 brei, and female CDF₁ mice were intraperitoneally inoculated with 0.4 ml of diluted ascitic fluid containing 10⁶ lymphocytic leukemia P388 cells or 10⁵ lymphoid leukemia L1210 cells. Mitomycin C was used as a reference compound. Test compounds were intraperitoneally administered to the mice by the following treatment schedules: once a day on day 1 only (Q1D x 1), on days 1, 5 and 9 (Q4D x 3) or on days 1 to 9 (Q1D x 9). […]

L1210 leukemia = test: In vivo antitumor activity in tumor-bearing mice, L1210 leukemia (ip); conditions: for Body weight change on day 4 / MST (Median survival time) / T/C: L1210 leukemia ip, CDF₁ mice, Q1D x 1; for T/C: significant if T/C ≧ 125%
Protocol: as §1

[1] = tested on: HCT-116 (human colon carcinoma); conditions: HCT-116 cells, 72 hours
Protocol: (§2) BU-3983T was tested for in vitro cytotoxicity against murine and human cell lines and for in vivo antitumor activity in mice. B16-F10 (murine melanoma) and Moser (human colorectal carcinoma) cells were grown to the logarithmic phase in the enriched Eagle minimum essential medium supplemented with fetal calf serum (FCS, 10%) and kanamycin (60 µg/ml), and HCT-116 (human colon carcinoma) were in McCoy's 5A medium supplemented with FCS (10%), penicillin (100 U/ml) and streptomycin (100 µg/ml). B16-F10, Moser and HCT-116 cells were harvested and implanted into wells of a 96-well microtiter plate at the inoculum sizes of 1.5 x 10⁴, 3 x 10⁴ and 3 x 10⁴ cells/ml, respectively. They were incubated with test materials at 37°C in humidified atmosphere of 5% CO₂ and 95% air for 72 hours. The cytotoxicity against tumor cells was determined colorimetrically at 540 nm after staining viable cells.

[2] = tested on: Moser (human colorectal carcinoma); conditions: Moser cells, 72 hours
Protocol: as §2

[3] = tested on: B16-F10 (murine melanoma)
Protocol: as §2

[4] = Antimicrobial activity (no method given)
[5] = tested on: DNA synthesis in B16-F10 melanoma cells; test: Inhibition of macromolecule synthesis: DNA (3H-thymidine incorporation); format: cell-based, murine; conditions: 4.5 hours + 30 minutes label
Protocol: (§3) B16-F10 cells (10⁵ cells/ml) were incubated with test materials at 37°C for 4.5 hours (for DNA synthesis) or 4 hours (for RNA and protein syntheses). Labelled precursor, ³H-thymidine, ¹⁴C-uridine or ³H-leucine was added to the culture and further incubated for 30 minutes (for DNA) or 60 minutes (for RNA and protein). After washing with chilled 5% trichloroacetic acid solution, the radioactivity incorporated into the acid-insoluble fraction of the tumor cells was determined by a liquid scintillation counter. Actinomycin D was used as a reference compound.

[6] = tested on: Protein synthesis in B16-F10 melanoma cells; test: Inhibition of macromolecule synthesis: protein (3H-leucine incorporation); format: cell-based, murine
Protocol: as §3

P388 leukemia = test: In vivo antitumor activity in tumor-bearing mice, P388 leukemia (ip); conditions: for Body weight change on day 4 / MST (Median survival time) / T/C: P388 leukemia ip, CDF₁ mice, Q1D x 1; for T/C: significant if T/C ≧ 125%
Protocol: as §1

[7] = tested on: RNA synthesis in B16-F10 melanoma cells; test: Inhibition of macromolecule synthesis: RNA (14C-uridine incorporation); format: cell-based, murine; conditions: 4 hours + 60 minutes label
Protocol: as §3

SMILES: CCC(C)CC(C)CC(C)/C=C(\C)C1OC(O)(C(C)(O)C(=O)NC2C(=O)N3NCCCC3C(=O)N(O)CC(=O)N(C)CC(=O)NCC(=O)N(C)CC(=O)OC2C(C)C)CCC1OC (centres unmarked) [BU-3983T]
- Body weight change on day 5 (B16 melanoma; 0.031 mg/kg/day ip, Q1D x 9): +1.0 g
- MST (Median survival time) (B16 melanoma; 0.031 mg/kg/day ip, Q1D x 9): 16.0 days
- T/C (B16 melanoma; 0.031 mg/kg/day ip, Q1D x 9): 110%
- Body weight change on day 5 (B16 melanoma; 0.063 mg/kg/day ip, Q1D x 9): +1.0 g
- MST (Median survival time) (B16 melanoma; 0.063 mg/kg/day ip, Q1D x 9): 17.5 days
- T/C (B16 melanoma; 0.063 mg/kg/day ip, Q1D x 9): 121%
- Body weight change on day 5 (B16 melanoma; 0.063 mg/kg/day ip, Q4D x 3): +0.5 g
- MST (Median survival time) (B16 melanoma; 0.063 mg/kg/day ip, Q4D x 3): 14.0 days
- T/C (B16 melanoma; 0.063 mg/kg/day ip, Q4D x 3): 108%
- Body weight change on day 5 (B16 melanoma; 0.13 mg/kg/day ip, Q1D x 1): +0.5 g
- MST (Median survival time) (B16 melanoma; 0.13 mg/kg/day ip, Q1D x 1): 14.0 days
- T/C (B16 melanoma; 0.13 mg/kg/day ip, Q1D x 1): 108%
- Body weight change on day 5 (B16 melanoma; 0.13 mg/kg/day ip, Q1D x 9): -0.3 g
- MST (Median survival time) (B16 melanoma; 0.13 mg/kg/day ip, Q1D x 9): 19.0 days
- T/C (B16 melanoma; 0.13 mg/kg/day ip, Q1D x 9): 131*² %
- Body weight change on day 5 (B16 melanoma; 0.13 mg/kg/day ip, Q4D x 3): +0.0 g
- MST (Median survival time) (B16 melanoma; 0.13 mg/kg/day ip, Q4D x 3): 15.0 days
- T/C (B16 melanoma; 0.13 mg/kg/day ip, Q4D x 3): 115%
- Body weight change on day 5 (B16 melanoma; 0.25 mg/kg/day ip, Q1D x 1): 0.0 g
- MST (Median survival time) (B16 melanoma; 0.25 mg/kg/day ip, Q1D x 1): 17.0 days
- T/C (B16 melanoma; 0.25 mg/kg/day ip, Q1D x 1): 131*² %
- Body weight change on day 5 (B16 melanoma; 0.25 mg/kg/day ip, Q1D x 9): -1.0 g
- MST (Median survival time) (B16 melanoma; 0.25 mg/kg/day ip, Q1D x 9): 19.5 days
- T/C (B16 melanoma; 0.25 mg/kg/day ip, Q1D x 9): 138*² %
- Body weight change on day 5 (B16 melanoma; 0.25 mg/kg/day ip, Q4D x 3): 0.0 g
- MST (Median survival time) (B16 melanoma; 0.25 mg/kg/day ip, Q4D x 3): 16.0 days
- T/C (B16 melanoma; 0.25 mg/kg/day ip, Q4D x 3): 123%
- Body weight change on day 5 (B16 melanoma; 0.5 mg/kg/day ip, Q1D x 1): -1.0 g
- MST (Median survival time) (B16 melanoma; 0.5 mg/kg/day ip, Q1D x 1): 17.0 days
- T/C (B16 melanoma; 0.5 mg/kg/day ip, Q1D x 1): 131*² %
- Body weight change on day 5 (B16 melanoma; 0.5 mg/kg/day ip, Q1D x 9): -4.0 g
- MST (Median survival time) (B16 melanoma; 0.5 mg/kg/day ip, Q1D x 9): 20.0 days
- T/C (B16 melanoma; 0.5 mg/kg/day ip, Q1D x 9): 148*² %
- Body weight change on day 5 (B16 melanoma; 0.5 mg/kg/day ip, Q4D x 3): -0.5 g
- MST (Median survival time) (B16 melanoma; 0.5 mg/kg/day ip, Q4D x 3): 19.0 days
- T/C (B16 melanoma; 0.5 mg/kg/day ip, Q4D x 3): 146*² %
- Body weight change on day 5 (B16 melanoma; 1 mg/kg/day ip, Q1D x 1): -4.0 g
- MST (Median survival time) (B16 melanoma; 1 mg/kg/day ip, Q1D x 1): 16.5 days
- T/C (B16 melanoma; 1 mg/kg/day ip, Q1D x 1): 127*² %
- MST (Median survival time) (B16 melanoma; 1 mg/kg/day ip, Q1D x 9): Tox
- T/C (B16 melanoma; 1 mg/kg/day ip, Q1D x 9): Tox
- Body weight change on day 5 (B16 melanoma; 1 mg/kg/day ip, Q4D x 3): -2.3 g
- MST (Median survival time) (B16 melanoma; 1 mg/kg/day ip, Q4D x 3): 17.5 days
- T/C (B16 melanoma; 1 mg/kg/day ip, Q4D x 3): 135*² %
- Body weight change on day 5 (B16 melanoma; 2 mg/kg/day ip, Q1D x 1): -4.8 g
- MST (Median survival time) (B16 melanoma; 2 mg/kg/day ip, Q1D x 1): 21.0 days
- T/C (B16 melanoma; 2 mg/kg/day ip, Q1D x 1): 162*² %
- Body weight change on day 5 (B16 melanoma; 2 mg/kg/day ip, Q4D x 3): -4.0 g
- MST (Median survival time) (B16 melanoma; 2 mg/kg/day ip, Q4D x 3): 18.0 days
- T/C (B16 melanoma; 2 mg/kg/day ip, Q4D x 3): 138*² %
- Body weight change on day 5 (B16 melanoma; 4 mg/kg/day ip, Q1D x 1): -5.3 g
- MST (Median survival time) (B16 melanoma; 4 mg/kg/day ip, Q1D x 1): 19.0 days
- T/C (B16 melanoma; 4 mg/kg/day ip, Q1D x 1): 146*² %
- Body weight change on day 5 (B16 melanoma; 8 mg/kg/day ip, Q1D x 1): -5.3 g
- MST (Median survival time) (B16 melanoma; 8 mg/kg/day ip, Q1D x 1): 17.5 days
- T/C (B16 melanoma; 8 mg/kg/day ip, Q1D x 1): 135*² %
- maximum T/C (B16 melanoma; B16 melanoma, by various treatment schedules (Q1D x 1, Q4D x 3, Q1D x 9), ip): 146-162%
- Body weight change on day 4 (L1210 leukemia; 0.25 mg/kg/day ip): +0.8 g
- MST (Median survival time) (L1210 leukemia; 0.25 mg/kg/day ip): 8.0 days
- T/C (L1210 leukemia; 0.25 mg/kg/day ip): 100%
- Body weight change on day 4 (L1210 leukemia; 0.5 mg/kg/day ip): -0.5 g
- MST (Median survival time) (L1210 leukemia; 0.5 mg/kg/day ip): 8.0 days
- T/C (L1210 leukemia; 0.5 mg/kg/day ip): 100%
- Body weight change on day 4 (L1210 leukemia; 1 mg/kg/day ip): -2.0 g
- MST (Median survival time) (L1210 leukemia; 1 mg/kg/day ip): 8.0 days
- T/C (L1210 leukemia; 1 mg/kg/day ip): 100%
- Body weight change on day 4 (L1210 leukemia; 2 mg/kg/day ip): -2.0 g
- MST (Median survival time) (L1210 leukemia; 2 mg/kg/day ip): 9.0 days
- T/C (L1210 leukemia; 2 mg/kg/day ip): 113%
- Body weight change on day 4 (L1210 leukemia; 4 mg/kg/day ip): -2.5 g
- MST (Median survival time) (L1210 leukemia; 4 mg/kg/day ip): 9.5 days
- T/C (L1210 leukemia; 4 mg/kg/day ip): 119%
- MST (Median survival time) (L1210 leukemia; 8 mg/kg/day ip): Tox
- T/C (L1210 leukemia; 8 mg/kg/day ip): Tox
- prolongation of lifespan (L1210 leukemia; L1210 leukemia system, ip): no significant prolongation of lifespan
- IC₅₀ [1]: 0.04 µg/mL
- IC₅₀ [2]: 0.4 µg/mL
- IC₅₀ ([3]; B16-F10 cells, 72 hours): 0.004 µg/mL
- times more potent against B16-F10 than against HCT-116 ([3]; ratio of IC₅₀ values, B16-F10 vs HCT-116): 10 times
- times more potent against B16-F10 than against Moser ([3]; ratio of IC₅₀ values, B16-F10 vs Moser): 100 times
- antimicrobial activity [4]: weak
- IC₅₀ DNA [5]: 0.26 µg/mL
- IC₅₀ Protein ([6]; 4 hours + 60 minutes label): >1.0 µg/mL
- inhibition of protein synthesis ([6]; at 1.0 µg/ml): only weak inhibition
- Body weight change on day 4 (P388 leukemia; 0.25 mg/kg/day ip): +0.3 g
- MST (Median survival time) (P388 leukemia; 0.25 mg/kg/day ip): 11.0 days
- T/C (P388 leukemia; 0.25 mg/kg/day ip): 110%
- Body weight change on day 4 (P388 leukemia; 0.5 mg/kg/day ip): -0.5 g
- MST (Median survival time) (P388 leukemia; 0.5 mg/kg/day ip): 10.0 days
- T/C (P388 leukemia; 0.5 mg/kg/day ip): 100%
- Body weight change on day 4 (P388 leukemia; 1 mg/kg/day ip): -1.5 g
- MST (Median survival time) (P388 leukemia; 1 mg/kg/day ip): 10.0 days
- T/C (P388 leukemia; 1 mg/kg/day ip): 100%
- Body weight change on day 4 (P388 leukemia; 2 mg/kg/day ip): -2.0 g
- MST (Median survival time) (P388 leukemia; 2 mg/kg/day ip): 10.0 days
- T/C (P388 leukemia; 2 mg/kg/day ip): 100%
- Body weight change on day 4 (P388 leukemia; 4 mg/kg/day ip): -2.3 g
- MST (Median survival time) (P388 leukemia; 4 mg/kg/day ip): 11.0 days
- T/C (P388 leukemia; 4 mg/kg/day ip): 110%
- Body weight change on day 4 (P388 leukemia; 8 mg/kg/day ip): -2.5 g
- MST (Median survival time) (P388 leukemia; 8 mg/kg/day ip): 11.5 days
- T/C (P388 leukemia; 8 mg/kg/day ip): 115%
- prolongation of lifespan (P388 leukemia; P388 leukemia system, ip): no significant prolongation of lifespan
- IC₅₀ RNA [7]: 0.29 µg/mL
- solubility (in acetonitrile, methanol, chloroform, dimethyl sulfoxide and dimethylformamide): readily soluble
- solubility (in n-butanol, ethanol and ethyl acetate): slightly soluble
- solubility (in n-hexane and water): practically insoluble
